From the NIST ThermoML archive (doi:10.1016/j.jct.2016.04.003)

Experiment: xn = mol fraction of the nth substance listed
Details: for surface tension liquid-gas: Drop volume; for viscosity / speed of sound / mass density: 99 kPa, Liquid; for viscosity: Capillary tube (Ostwald / Ubbelohde) method; for speed of sound: Frequency=3 MHz, Sing-around technique in a fixed-path interferometer; for mass density: Vibrating tube method

CCCC[n+]1ccccc1.F[B-](F)(F)F [1-butylpyridinium tetrafluoroborate] + O
Details | mass density [kg/m3] | speed of sound [m/s] | surface tension liquid-gas [mN/m] | viscosity [mPa·s]
293.15 K, x1 = 0.0115 | – | – | 57.1 | –
293.15 K, x1 = 0.0165 | 1028.6 | 1539 | – | –
293.15 K, x1 = 0.0185 | – | – | 54.3 | –
293.15 K, x1 = 0.0271 | – | – | 52.5 | –
293.15 K, x1 = 0.0372 | – | – | 51.3 | –
293.15 K, x1 = 0.0379 | 1058 | 1572.7 | – | –
293.15 K, x1 = 0.0456 | – | – | 50.7 | –
293.15 K, x1 = 0.047 | – | – | – | 1.379
293.15 K, x1 = 0.0863 | 1100.2 | 1606.7 | – | –
293.15 K, x1 = 0.0942 | – | – | 49.2 | –
293.15 K, x1 = 0.095 | – | – | – | 1.806
293.15 K, x1 = 0.101 | 1109.3 | 1612.3 | – | –
293.15 K, x1 = 0.134 | 1125.6 | 1620.9 | – | –
293.15 K, x1 = 0.1907 | – | – | 48.7 | –
293.15 K, x1 = 0.2001 | – | – | – | 3.439
293.15 K, x1 = 0.243 | 1158.2 | 1630 | – | –
293.15 K, x1 = 0.2846 | – | – | 48.3 | –
293.15 K, x1 = 0.289 | 1167 | 1629.4 | – | –
293.15 K, x1 = 0.2912 | – | – | – | 5.459
293.15 K, x1 = 0.34 | – | – | 48.3 | –
293.15 K, x1 = 0.3456 | 1175.6 | 1627.7 | – | –
293.15 K, x1 = 0.3866 | – | – | 48 | –
293.15 K, x1 = 0.4015 | – | – | – | 10.4
293.15 K, x1 = 0.4217 | 1184.5 | 1624.5 | – | –
293.15 K, x1 = 0.4807 | – | – | – | 15.2
293.15 K, x1 = 0.486 | – | – | 47.7 | –
293.15 K, x1 = 0.5485 | 1195.4 | 1619.7 | – | –
293.15 K, x1 = 0.5777 | – | – | 47.5 | –
293.15 K, x1 = 0.5815 | – | – | – | 23.72
293.15 K, x1 = 0.6029 | 1199 | 1618 | – | –
293.15 K, x1 = 0.6641 | – | – | – | 34.53
293.15 K, x1 = 0.6943 | – | – | 47.3 | –
293.15 K, x1 = 0.7232 | 1205.7 | 1614.9 | – | –
293.15 K, x1 = 0.7779 | – | – | 47 | –
293.15 K, x1 = 0.7855 | – | – | – | 67.74
293.15 K, x1 = 0.8005 | 1209.3 | 1613.5 | – | –
293.15 K, x1 = 0.835 | – | – | 46.8 | –
293.15 K, x1 = 0.8575 | 1211.7 | 1612.8 | – | –
293.15 K, x1 = 0.8875 | – | – | – | 121.1
293.15 K, x1 = 0.925 | – | – | 46.8 | –
293.15 K, x1 = 0.9305 | – | – | – | 149.6
293.15 K, x1 = 0.9315 | 1214.5 | 1612 | – | –
293.15 K, x1 = 0.9705 | – | – | – | 189.6
293.15 K, x1 = 1 | 1217.1 | 1611.5 | 46.9 | 220.5
303.15 K, x1 = 0.0115 | – | – | 56.4 | –
303.15 K, x1 = 0.0165 | 1025.3 | 1552 | – | –
303.15 K, x1 = 0.0185 | – | – | 54 | –
303.15 K, x1 = 0.0271 | – | – | 52.1 | –
303.15 K, x1 = 0.0372 | – | – | 51 | –
303.15 K, x1 = 0.0379 | 1053.9 | 1576.9 | – | –
303.15 K, x1 = 0.0456 | – | – | 50.4 | –
303.15 K, x1 = 0.047 | – | – | – | 1.082
303.15 K, x1 = 0.0863 | 1094.8 | 1600.1 | – | –
303.15 K, x1 = 0.0942 | – | – | 49.1 | –
303.15 K, x1 = 0.095 | – | – | – | 1.333
303.15 K, x1 = 0.101 | 1103.7 | 1603.2 | – | –
303.15 K, x1 = 0.134 | 1119.5 | 1608.1 | – | –
303.15 K, x1 = 0.1907 | – | – | 48.5 | –
303.15 K, x1 = 0.2001 | – | – | – | 2.475
303.15 K, x1 = 0.243 | 1151.3 | 1610.7 | – | –
303.15 K, x1 = 0.2846 | – | – | 48.1 | –
303.15 K, x1 = 0.289 | 1159.9 | 1608.8 | – | –
303.15 K, x1 = 0.2912 | – | – | – | 4.217
303.15 K, x1 = 0.34 | – | – | 47.9 | –
303.15 K, x1 = 0.3456 | 1168.3 | 1606.1 | – | –
303.15 K, x1 = 0.3866 | – | – | 47.6 | –
303.15 K, x1 = 0.4015 | – | – | – | 7.329
303.15 K, x1 = 0.4217 | 1177.2 | 1602.7 | – | –
303.15 K, x1 = 0.4807 | – | – | – | 10.67
303.15 K, x1 = 0.486 | – | – | 47.3 | –
303.15 K, x1 = 0.5485 | 1188 | 1597.4 | – | –
303.15 K, x1 = 0.5777 | – | – | 47 | –
303.15 K, x1 = 0.5815 | – | – | – | 15.59
303.15 K, x1 = 0.6029 | 1191.7 | 1595.6 | – | –
303.15 K, x1 = 0.6641 | – | – | – | 22.31
303.15 K, x1 = 0.6943 | – | – | 46.7 | –
303.15 K, x1 = 0.7232 | 1198.5 | 1592.3 | – | –
303.15 K, x1 = 0.7779 | – | – | 46.5 | –
303.15 K, x1 = 0.7855 | – | – | – | 41.77
303.15 K, x1 = 0.8005 | 1202.2 | 1590.7 | – | –
303.15 K, x1 = 0.835 | – | – | 46.2 | –
303.15 K, x1 = 0.8575 | 1204.6 | 1589.7 | – | –
303.15 K, x1 = 0.8875 | – | – | – | 72.76
303.15 K, x1 = 0.925 | – | – | 46.2 | –
303.15 K, x1 = 0.9305 | – | – | – | 90.38
303.15 K, x1 = 0.9315 | 1207.6 | 1588.9 | – | –
303.15 K, x1 = 0.9705 | – | – | – | 106.5
303.15 K, x1 = 1 | 1210.3 | 1588.1 | 46.3 | 119.5
